In PMC8963254, “Effects of Lysine N-ζ-Methylation in Ultrashort Tetrabasic Lipopeptides (UTBLPs) on the Potentiation of Rifampicin, Novobiocin, and Niclosamide in Gram-Negative Bacteria” (Antibiotics, 2022):
Converted amounts (≈) assume the structure as drawn. Like-named read-outs stand apart in the source and are kept apart here. Non-standard residues stand in square brackets, D forms with d. Residues, ends and D or L forms follow the SMILES beside them. *: point of attachment. Lys(Me) = CNCCCC[C@H](N)C(=O)O; Octanoyl = CCCCCCCC(=O)*

Legend:
[1] = system: MRSE 61589; format: cell-based, Staphylococcus epidermidis
Summary of the method: (§1)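 Values derive from a two-agent checkerboard with an 18 h, 37 °C incubation. FICI cut-offs: ≤0.5 synergy, 0.5–4 additive, >4 antagonism.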

[2] = system: MSSE 81388; format: cell-based, Staphylococcus epidermidis
Summary of the method: as §1

[3] = system: P. aeruginosa PA262-101856; assay: microbe, parasite or virus in culture; format: cell-based, Pseudomonas aeruginosa; settings: PA262-101856, 18 h
Summary of the method: (§2)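 MIC was determined by broth microdilution following CLSI guidelines. Serially varied compound concentrations were incubated with bacterial inoculum at 5 × 10^5 CFU/mL (final) for 18 h at 37 °C. Growth was scored as turbidity by absorbance at 590 nm.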

[4] = system: P. aeruginosa PA259-96196; assay: microbe, parasite or virus in culture; format: cell-based, Pseudomonas aeruginosa; settings: PA259-96196, 18 h
Summary of the method: as §2

[5] = system: E. faecium ATCC 27270; format: cell-based, Enterococcus faecium
Summary of the method: as §1

[6] = system: MRSE 61589; format: cell-based, Staphylococcus epidermidis; settings: 61589, 18 h
Protocol: (§3) The in vitro antibacterial activity of the UTBLPs was assessed against wild-type and clinically isolated bacterial strains. To obtain the MIC of the compounds, the microbroth dilution susceptibility assay was performed according to the Clinical and Laboratory Standards Institute (CLSI, Wayne, PA, USA) guidelines and as previously described. Briefly, the compounds at varying concentrations were incubated with bacterial inoculum (5 × 10^5 CFU/mL final concentration) at 37 °C for 18 h. Growth in the form of turbidity was confirmed using an EMax Plus microplate reader (Molecular Devices, San Jose, CA, USA) at 590 nm.

[7] = system: MSSE 81388; format: cell-based, Staphylococcus epidermidis; settings: 18 h
Protocol: as §3

[8] = system: E. coli 94474; assay: microbe, parasite or virus in culture; format: cell-based, Escherichia coli; settings: 94474, 18 h
Summary of the method: as §2

[9] = system: E. coli 94393; assay: microbe, parasite or virus in culture; format: cell-based, Escherichia coli; settings: 94393, 18 h
Summary of the method: as §2

[10] = system: E. coli 94393; format: cell-based, Escherichia coli; settings: for MICUTBLP: UTBLP alone
Summary of the method: as §1

[11] = system: E. coli ATCC 25922; format: cell-based, Escherichia coli; settings: for MICUTBLP: UTBLP alone
Summary of the method: as §1

[12] = system: P. aeruginosa PAO1; format: cell-based, Pseudomonas aeruginosa; settings: PAO1, 18 h
Protocol: as §3

[13] = system: K. pneumoniae 113250; assay: microbe, parasite or virus in culture; format: cell-based, Klebsiella pneumoniae; settings: 113250, 18 h
Summary of the method: as §2

[14] = system: S. aureus ATCC 29213; format: cell-based, Staphylococcus aureus; settings: ATCC 29213, 18 h
Protocol: as §3

[15] = system: MRSA ATCC 33592; format: cell-based, Staphylococcus aureus; settings: ATCC 33592, 18 h
Protocol: as §3

[16] = system: E. faecalis ATCC 29212; format: cell-based, Enterococcus faecalis
Summary of the method: as §1

[17] = system: E. coli ATCC 25922; format: cell-based, Escherichia coli; settings: ATCC 25922, 18 h
Protocol: as §3

[18] = system: E. cloacae 118564; assay: microbe, parasite or virus in culture; format: cell-based, Enterobacter cloacae; settings: 118564, 18 h
Summary of the method: as §2

[19] = UTBLP alone, plate with chloramphenicol
[20] = UTBLP in combination with chloramphenicol
[21] = chloramphenicol in combination with the UTBLP
[22] = UTBLP in combination with novobiocin
[23] = UTBLP in combination with rifampicin
[24] = novobiocin in combination with the UTBLP
[25] = rifampicin in combination with the UTBLP

`CCCCCCCC(=O)NCCCC[C@H](NC(=O)CCCCCCC)C(=O)N[C@@H](CCCCNC)C(=O)N[C@@H](CCCCNC)C(=O)N[C@@H](CCCCNC)C(=O)N[C@@H](CCCCNC)C(N)=O` [UTBLP 6] (Octanoyl-K(Octanoyl)[Lys(Me)][Lys(Me)][Lys(Me)][Lys(Me)]-NH2) was tested, and the Interpretation ([1]; UTBLP + chloramphenicol) was “Additive (0.5 < x ≤ 4 is additive)”, the MICUTBLP [1, 19] was 16 µg/mL and the “MICUTBLP [MICcombo]” value [1, 20] was 8 µg/mL. The “MICchloramphenicol [MICcombo]” value [1, 21] was 4 µg/mL, the Interpretation ([2]; UTBLP + chloramphenicol) was “Additive (0.5 < x ≤ 4 is additive)” and the MICUTBLP [2, 19] was 16 µg/mL. The “MICUTBLP [MICcombo]” value [2, 20] was 0.25 µg/mL, the “MICchloramphenicol [MICcombo]” value [2, 21] was 4 µg/mL and the MIC [3] was greater than 128 mg/L. For the same compound, the MIC [4] was greater than 128 mg/L, the Interpretation ([5]; UTBLP + chloramphenicol) was “Additive (0.5 < x ≤ 4 is additive)” and the MICUTBLP [5, 19] was 64 µg/mL. The “MICUTBLP [MICcombo]” value [5, 20] was 4 µg/mL, the “MICchloramphenicol [MICcombo]” value [5, 21] was 4 µg/mL and the MIC [6] was 16 mg/L (≈ 16.6 µM). For the same compound, the MIC [7] was 16 mg/L (≈ 16.6 µM), the MIC [8] was greater than 128 mg/L and the MIC [9] was 64 mg/L (≈ 66.2 µM). The Interpretation ([10]; UTBLP + novobiocin) was “Synergy (FICI ≤ 0.5 is synergistic)”, the Interpretation ([10]; UTBLP + rifampicin) was “Synergy (FICI ≤ 0.5 is synergistic)” and the MICUTBLP ([10]; plate with novobiocin) was 64 µg/mL. The MICUTBLP ([10]; plate with rifampicin) was 64 µg/mL, the “MICUTBLP [MICcombo]” value [10, 22] was 4 µg/mL and the “MICUTBLP [MICcombo]” value [10, 23] was 4 µg/mL. For the same compound, the “MICantibiotic [MICcombo]” value [10, 24] was 1 µg/mL, the “MICantibiotic [MICcombo]” value [10, 25] was 0.25 µg/mL and the Interpretation ([11]; UTBLP + chloramphenicol) was “Synergy (FICI ≤ 0.5 is synergistic)”. The Interpretation ([11]; UTBLP + niclosamide) was “Synergy (FICI ≤ 0.5 is synergistic)”, the Interpretation ([11]; UTBLP + novobiocin) was “Synergy (FICI ≤ 0.5 is synergistic)” and the Interpretation ([11]; UTBLP + rifampicin) was “Synergy (FICI ≤ 0.5 is synergistic)”. It also gave an MICUTBLP ([11]; plate with chloramphenicol) of 32 µg/mL, an MICUTBLP ([11]; plate with niclosamide) of 32 µg/mL and an MICUTBLP ([11]; plate with novobiocin) of 32 µg/mL. The MICUTBLP ([11]; plate with rifampicin) was 32 µg/mL, the “MICUTBLP [MICcombo]” value [11, 20] was 8 µg/mL and the “MICUTBLP [MICcombo]” value ([11]; UTBLP in combination with niclosamide) was 1 µg/mL. The “MICUTBLP [MICcombo]” value [11, 22] was 2 µg/mL, the “MICUTBLP [MICcombo]” value [11, 23] was 4 µg/mL and the “MICantibiotic [MICcombo]” value [11, 21] was 2 µg/mL. For the same compound, the “MICantibiotic [MICcombo]” value ([11]; niclosamide in combination with the UTBLP) was 2 µg/mL, the “MICantibiotic [MICcombo]” value [11, 24] was 0.5 µg/mL and the “MICantibiotic [MICcombo]” value [11, 25] was 0.063 µg/mL. For the same compound, the MIC [12] was greater than 128 mg/L, the MIC [13] was greater than 128 mg/L and the MIC [14] was 128 mg/L (≈ 132 µM). For the same compound, the MIC [15] was greater than 128 mg/L, the Interpretation ([16]; UTBLP + chloramphenicol) was “Additive (0.5 < x ≤ 4 is additive)” and the MICUTBLP [16, 19] was 32 µg/mL. For the same compound, the “MICUTBLP [MICcombo]” value [16, 20] was 4 µg/mL, the “MICchloramphenicol [MICcombo]” value [16, 21] was 4 µg/mL and the MIC [17] was 32 mg/L (≈ 33.1 µM). It also gave an MIC [18] greater than 128 mg/L.
